Experimental data taken from PMC5025730.

Key:
[1] = CuAAC macrocyclisation (azide + terminal alkyne to 1,4-triazole); CuI 2 eq, DIPEA 3 eq; settings: THF, 1.0 mM, 66.0 °C
[2] = RuAAC macrocyclisation (azide + terminal alkyne to 1,5-triazole); [Cp*RuCl]4 0.1 eq (more for 30b, 31b); settings: the molecule shown is the open-chain precursor, THF, 1.0 mM, 66.0 °C
[3] = CuAAC macrocyclisation (azide + terminal alkyne to 1,4-triazole); CuI 2 eq, DIPEA 3 eq; yield includes preceding coupling step on crude precursor; settings: the molecule shown is the open-chain precursor, THF, 1.0 mM, 66.0 °C, 2 steps
[4] = RuAAC macrocyclisation (azide + terminal alkyne to 1,5-triazole); [Cp*RuCl]4 0.1 eq (0.2 eq for 28b); yield includes preceding coupling step on crude precursor; settings: the molecule shown is the open-chain precursor, THF, 1.0 mM, 66.0 °C, 2 steps

## CN(C)C(=O)[C@@H]1CCCCn2cc(nn2)CN(CC(=O)OCCC(F)(F)C(F)(F)C(F)(F)C(F)(F)C(F)(F)C(F)(F)C(F)(F)C(F)(F)F)C(=O)c2cccc(c2)NC(=O)N1 [6 -> 24a]
[1]; from C#CCN(CC(=O)OCCC(F)(F)C(F)(F)C(F)(F)C(F)(F)C(F)(F)C(F)(F)C(F)(F)C(F)(F)F)C(=O)c1cccc(NC(=O)N[C@@H](CCCCN=[N+]=[N-])C(=O)N(C)C)c1, 17-membered ring
  ring closure, isolated yield: 70%

## C#CCN(CC(=O)OCCC(F)(F)C(F)(F)C(F)(F)C(F)(F)C(F)(F)C(F)(F)C(F)(F)C(F)(F)F)C(=O)c1cccc(NC(=O)N[C@@H](CCCCN=[N+]=[N-])C(=O)N(C)C)c1 [6 -> 24b]
[2]; 16-membered ring, 6.0 h
  ring closure, isolated yield: 33%

## O=C1CCc2cccc(c2)NC(=O)NCCc2ccc(cc2)-n2cc(nn2)CN(CC(=O)OCCC(F)(F)C(F)(F)C(F)(F)C(F)(F)C(F)(F)C(F)(F)C(F)(F)C(F)(F)F)C(=O)c2cccc(c2)N1 [13 -> 26a]
[1]; from C#CCN(CC(=O)OCCC(F)(F)C(F)(F)C(F)(F)C(F)(F)C(F)(F)C(F)(F)C(F)(F)C(F)(F)F)C(=O)c1cccc(NC(=O)CCc2cccc(NC(=O)NCCc3ccc(N=[N+]=[N-])cc3)c2)c1, 25-membered ring, 36.0 h
  ring closure, isolated yield: 60%

## C#CCN(CC(=O)OCCC(F)(F)C(F)(F)C(F)(F)C(F)(F)C(F)(F)C(F)(F)C(F)(F)C(F)(F)F)C(=O)c1cccc(NC(=O)CCc2cccc(NC(=O)NCCc3ccc(N=[N+]=[N-])cc3)c2)c1 [13 -> 26b]
[2]; 24-membered ring, 5.0 h
  ring closure, isolated yield: 54%

## C#CCN(CC(=O)OCCC(F)(F)C(F)(F)C(F)(F)C(F)(F)C(F)(F)C(F)(F)C(F)(F)C(F)(F)F)C(=O)c1cccc(NC(=O)CCc2cccc(NC(=O)NCCc3ccc(NC(=O)N[C@@H](CCCCN=[N+]=[N-])C(=O)N(C)C)cc3)c2)c1 [14 -> 27a (over two steps from 13)]
[3]; 33-membered ring, 24.0 h
  ring closure, yield over several steps: 31%

## C#CCN(CC(=O)OCCC(F)(F)C(F)(F)C(F)(F)C(F)(F)C(F)(F)C(F)(F)C(F)(F)C(F)(F)F)C(=O)c1cccc(NC(=O)CCc2cccc(NC(=O)NCCc3ccc(NC(=O)N[C@@H](CCCCN=[N+]=[N-])C(=O)N(C)C)cc3)c2)c1 [14 -> 27b (over two steps from 13)]
[4]; 32-membered ring, 24.0 h
  ring closure, yield over several steps: 12%

## C#CCN(CC(=O)OCCC(F)(F)C(F)(F)C(F)(F)C(F)(F)C(F)(F)C(F)(F)C(F)(F)C(F)(F)F)C(=O)c1cccc(N(C(=O)CCCCCCCN=[N+]=[N-])C(C(=O)NC2CCCCC2)c2ccccc2)c1 (stereo not shown) [17a -> 28a (over two steps from 2)]
[3]; 18-membered ring
  ring closure, yield over several steps: 18%

## C#CCN(CC(=O)OCCC(F)(F)C(F)(F)C(F)(F)C(F)(F)C(F)(F)C(F)(F)C(F)(F)C(F)(F)F)C(=O)c1cccc(N(C(=O)CCCCCCCN=[N+]=[N-])C(C(=O)NC2CCCCC2)c2ccccc2)c1 (stereo not shown) [17a -> 28b (over two steps from 2)]
[4]; 17-membered ring, 48.0 h
  ring closure, yield over several steps: 47%

## C#CCN(CC(=O)OCCC(F)(F)C(F)(F)C(F)(F)C(F)(F)C(F)(F)C(F)(F)C(F)(F)C(F)(F)F)C(=O)c1cccc(N(C(=O)CCCCCCCN=[N+]=[N-])C(C(=O)NC2CCCCC2)c2ccc(Br)cc2)c1 (stereo not shown) [17b -> 29a (over two steps from 2)]
[3]; 18-membered ring
  ring closure, yield over several steps: 24%

## C#CCN(CC(=O)OCCC(F)(F)C(F)(F)C(F)(F)C(F)(F)C(F)(F)C(F)(F)C(F)(F)C(F)(F)F)C(=O)c1cccc(N(C(=O)CCCCCCCN=[N+]=[N-])C(C(=O)NC2CCCCC2)c2ccc(Br)cc2)c1 (stereo not shown) [17b -> 29b (over two steps from 2)]
[4]; 17-membered ring
  ring closure, yield over several steps: 78%

## CO[C@H]1C(=O)N2c3cccc(c3)C(=O)N(CC(=O)OCCC(F)(F)C(F)(F)C(F)(F)C(F)(F)C(F)(F)C(F)(F)C(F)(F)C(F)(F)F)Cc3cn(nn3)CCCCc3cccc(c3)[C@@H]12 [18a -> 30a (cis beta-lactam)]
[1]; from C#CCN(CC(=O)OCCC(F)(F)C(F)(F)C(F)(F)C(F)(F)C(F)(F)C(F)(F)C(F)(F)C(F)(F)F)C(=O)c1cccc(N2C(=O)[C@H](OC)[C@@H]2c2cccc(CCCCN=[N+]=[N-])c2)c1, 18-membered ring, 24.0 h
  ring closure, isolated yield: 61%

## C#CCN(CC(=O)OCCC(F)(F)C(F)(F)C(F)(F)C(F)(F)C(F)(F)C(F)(F)C(F)(F)C(F)(F)F)C(=O)c1cccc(N2C(=O)[C@H](OC)[C@@H]2c2cccc(CCCCN=[N+]=[N-])c2)c1 [18a -> 30b (cis beta-lactam)]
[2]; 17-membered ring, 48.0 h
  ring closure, isolated yield: 33%

## CO[C@H]1C(=O)N2c3cccc(c3)C(=O)N(CC(=O)OCCC(F)(F)C(F)(F)C(F)(F)C(F)(F)C(F)(F)C(F)(F)C(F)(F)C(F)(F)F)Cc3cn(nn3)CCCCc3cccc(c3)[C@H]12 [18b -> 31a (trans beta-lactam)]
[1]; from C#CCN(CC(=O)OCCC(F)(F)C(F)(F)C(F)(F)C(F)(F)C(F)(F)C(F)(F)C(F)(F)C(F)(F)F)C(=O)c1cccc(N2C(=O)[C@H](OC)[C@H]2c2cccc(CCCCN=[N+]=[N-])c2)c1, 18-membered ring, 24.0 h
  ring closure, isolated yield: 91%

## C#CCN(CC(=O)OCCC(F)(F)C(F)(F)C(F)(F)C(F)(F)C(F)(F)C(F)(F)C(F)(F)C(F)(F)F)C(=O)c1cccc(N2C(=O)[C@H](OC)[C@H]2c2cccc(CCCCN=[N+]=[N-])c2)c1 [18b -> 31b (trans beta-lactam)]
[2]; 17-membered ring, 96.0 h
  ring closure, isolated yield: 7%

## O=C1C=CN2c3cccc(c3)C(=O)N(CC(=O)OCCC(F)(F)C(F)(F)C(F)(F)C(F)(F)C(F)(F)C(F)(F)C(F)(F)C(F)(F)F)Cc3cn(nn3)CCCCc3cccc(c3)C2C1 (stereo not shown) [19 -> 32a]
[1]; from C#CCN(CC(=O)OCCC(F)(F)C(F)(F)C(F)(F)C(F)(F)C(F)(F)C(F)(F)C(F)(F)C(F)(F)F)C(=O)c1cccc(N2C=CC(=O)CC2c2cccc(CCCCN=[N+]=[N-])c2)c1, 18-membered ring, 20.0 h
  ring closure, isolated yield: 33%

## C#CCN(CC(=O)OCCC(F)(F)C(F)(F)C(F)(F)C(F)(F)C(F)(F)C(F)(F)C(F)(F)C(F)(F)F)C(=O)c1cccc(N2C=CC(=O)CC2c2cccc(CCCCN=[N+]=[N-])c2)c1 (stereo not shown) [19 -> 32b]
[2]; 17-membered ring, 48.0 h
  ring closure, isolated yield: 19%

## O=C(CN1Cc2cn(nn2)CCCCc2cccc(c2)[C@H]2[C@@H]3CC[C@H](CC3=O)N2c2cccc(c2)C1=O)OCCC(F)(F)C(F)(F)C(F)(F)C(F)(F)C(F)(F)C(F)(F)C(F)(F)C(F)(F)F [20 -> 33 (exo azabicyclooctanone)]
[1]; from C#CCN(CC(=O)OCCC(F)(F)C(F)(F)C(F)(F)C(F)(F)C(F)(F)C(F)(F)C(F)(F)C(F)(F)F)C(=O)c1cccc(N2[C@@H]3CC[C@H](C(=O)C3)[C@@H]2c2cccc(CCCCN=[N+]=[N-])c2)c1, 18-membered ring
  ring closure, isolated yield: 65%

## O=C(CN1Cc2cn(nn2)CCCCc2cccc(c2)[C@H]2Nc3cc(ccc3[C@H]3OCCC[C@@H]23)C1=O)OCCC(F)(F)C(F)(F)C(F)(F)C(F)(F)C(F)(F)C(F)(F)C(F)(F)C(F)(F)F [21a -> 25a (calculated 0.012/0.021 mmol)]
[1]; from C#CCN(CC(=O)OCCC(F)(F)C(F)(F)C(F)(F)C(F)(F)C(F)(F)C(F)(F)C(F)(F)C(F)(F)F)C(=O)c1ccc2c(c1)N[C@H](c1cccc(CCCCN=[N+]=[N-])c1)[C@@H]1CCCO[C@H]21, 18-membered ring
  ring closure, isolated yield: 57%

## C#CCN(CC(=O)OCCC(F)(F)C(F)(F)C(F)(F)C(F)(F)C(F)(F)C(F)(F)C(F)(F)C(F)(F)F)C(=O)c1ccc2c(c1)N[C@H](c1cccc(CCCCN=[N+]=[N-])c1)[C@H]1CCCO[C@@H]21 [21b -> 25b (from 21b/21c mixture, over two steps from 2)]
[3]; 18-membered ring
  ring closure, yield over several steps: 4%

## C#CCN(CC(=O)OCCC(F)(F)C(F)(F)C(F)(F)C(F)(F)C(F)(F)C(F)(F)C(F)(F)C(F)(F)F)C(=O)c1cccc2c1[C@@H]1OCCC[C@@H]1[C@H](c1cccc(CCCCN=[N+]=[N-])c1)N2 [21c -> 25c (from 21b/21c mixture, over two steps from 2)]
[3]; 18-membered ring
  ring closure, yield over several steps: 7%

## O=C(CN1Cc2cn(nn2)CCCCc2cccc(c2)[C@@H]2Nc3cccc(c3[C@H]3OCCC[C@H]32)C1=O)OCCC(F)(F)C(F)(F)C(F)(F)C(F)(F)C(F)(F)C(F)(F)C(F)(F)C(F)(F)F [21d -> 25d (calculated 0.011/0.017 mmol)]
[1]; from C#CCN(CC(=O)OCCC(F)(F)C(F)(F)C(F)(F)C(F)(F)C(F)(F)C(F)(F)C(F)(F)C(F)(F)F)C(=O)c1cccc2c1[C@H]1OCCC[C@H]1[C@H](c1cccc(CCCCN=[N+]=[N-])c1)N2, 18-membered ring
  ring closure, isolated yield: 65%

## C#CCN(CC(=O)OCCC(F)(F)C(F)(F)C(F)(F)C(F)(F)C(F)(F)C(F)(F)C(F)(F)C(F)(F)F)C(=O)c1cccc(NC(C#N)c2cccc(CCCCN=[N+]=[N-])c2)c1 (stereo not shown) [22 -> 34 (over two steps from 2)]
[3]; 18-membered ring
  ring closure, yield over several steps: 71%
